Data from patent publication US4364926A, “Novel alkaline protease M3 method for the preparation thereof and dental caries-prophylactic composition containing the same” (Dainippon Pharmaceutical Co., Ltd., priority 1980, dated 1982).
Where a name gives a salt, the structure may show the parent alone. Read-outs that look alike come from different tables or passages of the source.

Test system: alkaline protease M3 from Streptomyces globisporus B-1829 strain (ATCC 21553)
Assay: Protease activity (casein hydrolysis) in the presence of additives
Assay type: biochemical
[1] = additive 10^-3 M, protease activity, no additive = 100

O=C(O)CI [Iodoacetic acid]
Effect by additive on activity (in words): substantially not inhibited | Inhibition of protease activity (in words): substantially not inhibited | Relative activity (%): 118%

O=C1O[C@H]([C@@H](O)CO)C(O)=C1O [L-Ascorbic acid]
Relative activity (%) [1]: 110%

O=C1CCC(=O)N1Br [NBS, N--Bromosuccinimide]
Relative activity (%) [1]: 85% | Relative activity (%) (additive 10^-4 M, protease activity, no additive = 100): 0% | Inhibition of protease activity (in words) (additive in an amount of 10^-4 M): completely inhibited

NNC(N)=O [Semicarbazide hydrochloride]
Relative activity (%): 116%

O=C(O)CCC(=O)O [Succinic acid]
Relative activity (%) [1]: 113%

NC(N)=S [Thiourea]
Relative activity (%): 119%
